The target in experiment [1] is T1, recombinant human Estrogen Receptor alpha ligand binding domain, residues 307-554 (ER alpha-LBD (GST)) (Homo sapiens, UniProt P03372).
T1 construct: made in house
T1 sequence (P03372 307-554): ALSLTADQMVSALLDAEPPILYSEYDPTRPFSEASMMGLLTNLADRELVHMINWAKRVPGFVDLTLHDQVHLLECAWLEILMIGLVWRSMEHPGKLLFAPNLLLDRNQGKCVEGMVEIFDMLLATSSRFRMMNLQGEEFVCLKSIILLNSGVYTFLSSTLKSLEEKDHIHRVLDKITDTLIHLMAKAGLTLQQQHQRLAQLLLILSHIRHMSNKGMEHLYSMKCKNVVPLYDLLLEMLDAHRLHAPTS
The experiment can be described thus: ERα binding assay (LanthaScreen TR-FRET competition). The settings on record: TR-FRET competition with Fluormone ES2 tracer, 4 hours at room temperature; single experiment or average of two or more. (In general: TR-FRET usually uses a lanthanide donor and a delayed reading to cut background.)

Experiment [2] addresses T2, Estrogen Receptor (ERα) in MCF-7 human ductal carcinoma breast cell line (Homo sapiens, UniProt P03372).
T2 construct: endogenous in cells; host or cells: MCF-7
T2 sequence (P03372 1-595): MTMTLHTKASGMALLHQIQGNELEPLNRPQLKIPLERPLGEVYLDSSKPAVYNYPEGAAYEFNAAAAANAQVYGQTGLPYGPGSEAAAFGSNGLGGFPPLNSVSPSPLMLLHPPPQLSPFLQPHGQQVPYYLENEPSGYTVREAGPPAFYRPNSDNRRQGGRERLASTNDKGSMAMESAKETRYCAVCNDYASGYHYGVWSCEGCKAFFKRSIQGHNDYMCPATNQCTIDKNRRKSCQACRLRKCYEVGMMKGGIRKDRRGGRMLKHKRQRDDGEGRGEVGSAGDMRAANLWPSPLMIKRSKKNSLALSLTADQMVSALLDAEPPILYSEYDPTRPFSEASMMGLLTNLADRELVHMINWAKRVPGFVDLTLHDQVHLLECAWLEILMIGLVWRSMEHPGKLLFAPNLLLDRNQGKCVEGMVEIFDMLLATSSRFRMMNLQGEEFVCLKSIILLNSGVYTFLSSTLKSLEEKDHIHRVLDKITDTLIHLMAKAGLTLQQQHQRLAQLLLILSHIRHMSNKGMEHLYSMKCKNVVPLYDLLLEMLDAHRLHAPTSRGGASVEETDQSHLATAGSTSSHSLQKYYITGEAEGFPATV
The experiment can be described thus: MCF-7 ER degradation assay (cell based immuno-fluorescence). The settings on record: MCF-7 cells, 18-22 hours incubation, 50% reduction of ERα expression; single experiment or average of two or more; read-out: MCF-7 ER degradation IC50. An outline of the steps:
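MCF-7 human ductal carcinoma breast cells were seeded at 3.75×10^4 cells per mL (40 μL per well) in 384 well plates with phenol red free DMEM containing 2 mM L-Glutamine and 5% (v/v) Charcoal/Dextran treated foetal calf serum. After overnight culture, compounds were acoustically dispensed, incubated 18-22 hours, then cells were formaldehyde-fixed and immunostained for ERα.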

What is called IC50 is the point on the concentration scale where inhibition reaches its midpoint.

In the case of `Cc1ncsc1-c1ccc(CNC(=O)[C@@H]2C[C@@H](O)CN2C(=O)[C@@H](NC(=O)CNCCCCCOc2cc(F)c([C@@H]3c4[nH]c5ccccc5c4C[C@@H](C)N3CC(C)(C)F)c(F)c2)C(C)(C)C)cc1` [Example 89, (2S,4R)-1-((S)-2-(2-((5-(3,5-Difluoro-4-((1R,3R)-2-(2-fluoro-2-methylpropyl)-3-methyl-2,3,4,9-tetrahydro-1H-pyrido[3,4-b]indol-1-yl)phenoxy)pentyl)amino)acetamido)-3,3-dimethylbutanoyl)-4-hydroxy-N-(4-(4-methylthiazol-5-yl)benzyl)pyrrolidine-2-carboxamide], the IC50 in experiment [1] came to 700 pM. In experiment [2], the DC50 came to 700 pM.

For `Cc1ncsc1-c1ccc(CNC(=O)[C@@H]2C[C@@H](O)CN2C(=O)[C@@H](NC(=O)CN(C)CCCCCOc2cc(F)c(C3c4[nH]c5ccccc5c4C[C@@H](C)N3CC(C)(C)F)c(F)c2)C(C)(C)C)cc1` (stereo partly drawn) [Example 90, (2S,4R)-1-((S)-2-(2-((5-(3,5-Difluoro-4-((1R,3R)-2-(2-fluoro-2-methylpropyl)-3-methyl-2,3,4,9-tetrahydro-1H-pyrido-[3,4-b]indol-1-yl)phenoxy)pentyl)(methyl)amino)acetamido)-3,3-dimethylbutanol)-4-hydroxy-N-(4-(4-methylthiazol-5-yl)benzyl)pyrrolidine-2-carboxamide], the IC50 in experiment [1] was found to be 1200 pM. Besides, in experiment [2], the DC50 was 102000 pM.

Consider `Cc1ncsc1-c1ccc(CNC(=O)[C@@H]2C[C@@H](O)CN2C(=O)[C@@H](NC(=O)CCOCCCCOc2cc(F)c([C@@H]3c4[nH]c5ccccc5c4C[C@@H](C)N3CC(C)(C)F)c(F)c2)C(C)(C)C)cc1` [Example 92, (2S,4R)-1-((S)-2-(3-(4-(3,5-difluoro-4-((1R,3R)-2-(2-fluoro-2-methylpropyl)-3-methyl-2,3,4,9-tetrahydro-1H-pyrido[3,4-b]indol-1-yl)phenoxy)butoxy)propanamido)-3,3-dimethylbutanoyl)-4-hydroxy-N-(4-(4-methylthiazol-5-yl)benzyl)pyrrolidine-2-carboxamide], for which, in experiment [1], the IC50 was 600 pM. Further, the DC50 in experiment [2] was 400 pM.

In the case of `Cc1ncsc1-c1ccc(CNC(=O)[C@@H]2C[C@@H](O)CN2C(=O)[C@@H](NC(=O)CCN2CCN(CCCCOc3cc(F)c([C@@H]4c5[nH]c6ccccc6c5C[C@@H](C)N4CC(C)(C)F)c(F)c3)CC2)C(C)(C)C)cc1` [Example 98, (2S,4R)-1-((S)-2-(3-(4-(4-(3,5-Difluoro-4-((1R,3R)-2-(2-fluoro-2-methylpropyl)-3-methyl-2,3,4,9-tetrahydro-1H-pyrido[3,4-b]indol-1-yl)phenoxy)butyl)piperazin-1-yl)propanamido)-3,3-dimethylbutanoyl)-4-hydroxy-N-(4-(4-methylthiazol-5-yl)benzyl)pyrrolidine-2-carboxamide], in experiment [1], the IC50 was 600 pM. For the same compound, the DC50 in experiment [2] stood at 400 pM.

With `Cc1ncsc1-c1ccc(CNC(=O)[C@@H]2C[C@@H](O)CN2C(=O)[C@@H](NC(=O)CCCCN2CCN(CCOc3cc(F)c([C@@H]4c5[nH]c6ccccc6c5C[C@@H](C)N4CC(C)(C)F)c(F)c3)CC2)C(C)(C)C)cc1` [Example 102, (2S,4R)-1-((S)-2-(5-(4-(2-(3,5-difluoro-4-((1R,3R)-2-(2-fluoro-2-methylpropyl)-3-methyl-2,3,4,9-tetrahydro-1H-pyrido[3,4-b]indol-1-yl)phenoxy)ethyl)piperazin-1-yl)pentanamido)-3,3-dimethylbutanoyl)-4-hydroxy-N-(4-(4-methylthiazol-5-yl)benzyl)pyrrolidine-2-carboxamide], the IC50 in experiment [1] stood at 600 pM. Besides, in experiment [2], the DC50 stood at 900 pM.

Take `Cc1ncsc1-c1ccc([C@H](CN(C)C)NC(=O)[C@@H]2C[C@@H](O)CN2C(=O)[C@@H](NC(=O)COCCOCCOCCOc2cc(F)c([C@@H]3c4[nH]c5ccccc5c4C[C@@H](C)N3CC(C)(C)F)c(F)c2)C(C)(C)C)cc1` [Example 104, (2S,4R)-1-[(2S)-2-[[2-[2-[2-[2-[3,5-Difluoro-4-[(1R,3R)-2-(2-fluoro-2-methyl-propyl)-3-methyl-1,3,4,9-tetrahydropyrido[3,4-b]indol-1-yl]phenoxy]ethoxy]ethoxy]ethoxy]acetyl]amino]-3,3-dimethyl-butanoyl]-N-[(1R)-2-(dimethylamino)-1-[4-(4-methylthiazol-5-yl)phenyl]ethyl]-4-hydroxy-pyrrolidine-2-carboxamide]: the IC50 in experiment [1] was 4600 pM. The DC50 in experiment [2] worked out at 54000 pM.

Take `Cc1ncsc1-c1ccc(CNC(=O)[C@@H]2C[C@@H](O)CN2C(=O)[C@@H](NC(=O)CCCCN(C)CCN(C)CCOc2cc(F)c([C@@H]3c4[nH]c5ccccc5c4C[C@@H](C)N3CC(C)(C)F)c(F)c2)C(C)(C)C)cc1` [Example 108, (2S,4R)-1-((S)-2-(5-((2-((2-(3,5-difluoro-4-((1R,3R)-2-(2-fluoro-2-methylpropyl)-3-methyl-2,3,4,9-tetrahydro-1H-pyrido[3,4-b]indol-1-yl)phenoxy)ethyl)(methyl)amino)ethyl)(methyl)amino)pentanamido)-3,3-dimethylbutanoyl)-4-hydroxy-N-(4-(4-methylthiazol-5-yl)benzyl)pyrrolidine-2-carboxamide]: the IC50 in experiment [1] is 600 pM. Moreover, the DC50 in experiment [2] stood at 1100 pM.

With `Cc1ncsc1-c1ccc(CNC(=O)[C@@H]2C[C@@H](O)CN2C(=O)[C@@H](NC(=O)C(C)(C)OCCCCCCOc2cc(F)c([C@@H]3c4[nH]c5ccccc5c4C[C@@H](C)N3CC(C)(C)F)c(F)c2)C(C)(C)C)cc1` [Example 117, (2S,4R)-1-((S)-2-(2-((6-(3,5-Difluoro-4-((1R,3R)-2-(2-fluoro-2-methylpropyl)-3-methyl-2,3,4,9-tetrahydro-1H-pyrido[3,4-b]indol-1-yl)phenoxy)hexyl)oxy)-2-methylpropanamido)-3,3-dimethylbutanoyl)-4-hydroxy-N-(4-(4-methylthiazol-5-yl)benzyl)pyrrolidine-2-carboxamide], the IC50 in experiment [1] turned out to be 800 pM. Further, in experiment [2], the DC50 came out at 22000 pM.

In the case of `Cc1ncsc1-c1ccc(CNC(=O)[C@@H]2C[C@@H](O)CN2C(=O)[C@@H](NC(=O)COCc2cccnc2COc2cc(F)c([C@@H]3c4[nH]c5ccccc5c4C[C@@H](C)N3CC(C)(C)F)c(F)c2)C(C)(C)C)cc1` [Example 133, (2S,4R)-1-((S)-2-(2-((2-((3,5-Difluoro-4-((1R,3R)-2-(2-fluoro-2-methylpropyl)-3-methyl-2,3,4,9-tetrahydro-1H-pyrido[3,4-b]indol-1-yl)phenoxy)methyl)pyridin-3-yl)methoxy)acetamido)-3,3-dimethylbutanoyl)-4-hydroxy-N-(4-(4-methylthiazol-5-yl)benzyl)pyrrolidine-2-carboxamide], the IC50 in experiment [1] amounted to 700 pM. In experiment [2], the DC50 amounted to 800 pM.

As to `Cc1ncsc1-c1ccc(CNC(=O)[C@@H]2C[C@@H](O)CN2C(=O)[C@@H](NC(=O)CCCCCNCCCCOc2cc(F)c([C@@H]3c4[nH]c5ccccc5c4C[C@@H](C)N3CC(C)(C)F)c(F)c2)C(C)(C)C)cc1` [Example 145, (2S,4R)-1-((S)-2-(6-((4-(3,5-Difluoro-4-((1R,3R)-2-(2-fluoro-2-methylpropyl)-3-methyl-2,3,4,9-tetrahydro-1H-pyrido[3,4-b]indol-1-yl)phenoxy)butyl)amino)hexanamido)-3,3-dimethylbutanoyl)-4-hydroxy-N-(4-(4-methylthiazol-5-yl)benzyl)pyrrolidine-2-carboxamide], the IC50 in experiment [1] turned out to be 1100 pM. Besides, the DC50 in experiment [2] stood at 2700 pM.

For `Cc1ncsc1-c1ccc(CNC(=O)[C@@H]2C[C@@H](O)CN2C(=O)[C@@H](NC(=O)CCCNCCCCCCOc2cc(F)c([C@@H]3c4[nH]c5ccccc5c4C[C@@H](C)N3CC(C)(C)F)c(F)c2)C(C)(C)C)cc1` [Example 151, (2S,4R)-1-((S)-2-(4-((6-(3,5-Difluoro-4-((1R,3R)-2-(2-fluoro-2-methylpropyl)-3-methyl-2,3,4,9-tetrahydro-1H-pyrido[3,4-b]indol-1-yl)phenoxy)hexyl)amino)butanamido)-3,3-dimethylbutanoyl)-4-hydroxy-N-(4-(4-methylthiazol-5-yl)benzyl)pyrrolidine-2-carboxamide], in experiment [1], the IC50 worked out at 3600 pM. For the same compound, the DC50 in experiment [2] came out at 54000 pM.

These data come from patent US10519152B2, “Compounds and their use in treating cancer” (AstraZeneca AB, priority 2017, dated 2019).
